Test results reported in ChEMBL document CHEMBL1221220, “Transport and signaling via the amino acid binding site of the yeast Gap1 amino acid transceptor” (Nat Chem Biol, 2009).
Residue numbers refer to the chain shown, from its start. Active and inactive are the calls of the source. The rule behind the calls is not given here.

Tests used:
[1] = target: T1, General amino-acid permease GAP1 (Saccharomyces cerevisiae) (UniProt P19145); test: Induction of nitrogen-starved wild type sigma1278b yeast Gap1-mediated amino acid uptake at 2 mM in presence of 10 mM MTSEA treated before compound addition
T1 sequence (whole entry): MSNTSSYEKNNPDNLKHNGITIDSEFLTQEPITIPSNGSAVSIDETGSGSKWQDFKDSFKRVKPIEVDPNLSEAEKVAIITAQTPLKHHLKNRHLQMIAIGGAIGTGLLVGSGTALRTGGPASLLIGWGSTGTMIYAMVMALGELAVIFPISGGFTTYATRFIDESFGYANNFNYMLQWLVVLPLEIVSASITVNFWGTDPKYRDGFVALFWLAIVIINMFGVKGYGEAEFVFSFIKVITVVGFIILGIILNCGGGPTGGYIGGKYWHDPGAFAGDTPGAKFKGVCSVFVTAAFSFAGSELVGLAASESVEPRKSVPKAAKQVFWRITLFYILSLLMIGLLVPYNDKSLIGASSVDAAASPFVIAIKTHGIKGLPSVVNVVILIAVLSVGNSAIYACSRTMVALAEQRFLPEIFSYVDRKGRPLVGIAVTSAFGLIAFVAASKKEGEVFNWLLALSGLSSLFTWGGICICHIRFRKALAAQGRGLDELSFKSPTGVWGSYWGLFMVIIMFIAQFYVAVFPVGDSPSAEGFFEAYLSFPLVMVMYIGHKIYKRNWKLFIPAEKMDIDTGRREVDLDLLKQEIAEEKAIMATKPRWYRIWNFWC

[2] = test system: General amino-acid permease GAP1 (Saccharomyces cerevisiae), P19145 [Y395C]; test: Inhibition of yeast Gap1 Y395C mutant-mediated amino acid uptake at 10 mM
[3] = test system: T2, General amino-acid permease GAP1 (Saccharomyces cerevisiae), P19145 [I382C]; test: Induction of yeast Gap1 I382C mutant-mediated amino acid uptake at 2 mM in presence of 10 mM MTSEA treated before compound addition
T2 sequence (whole entry): T1 sequence (whole entry) with I382C

[4] = test system: T3, General amino-acid permease GAP1 (Saccharomyces cerevisiae), P19145 [T400C]; test: Induction of yeast Gap1 T400C mutant-mediated trehalose activation at 10 mM
T3 sequence (whole entry): T1 sequence (whole entry) with T400C

[5] = test system: T4, General amino-acid permease GAP1 (Saccharomyces cerevisiae), P19145 [M401C]; test: Induction of yeast Gap1 M401C mutant-mediated trehalose activation at 2 mM in presence of 10 mM MTSEA treated before compound addition
T4 sequence (whole entry): T1 sequence (whole entry) with M401C

Sequence of General amino-acid permease GAP1 (Saccharomyces cerevisiae), P19145 [Y395C] (P19145 whole entry Y395C): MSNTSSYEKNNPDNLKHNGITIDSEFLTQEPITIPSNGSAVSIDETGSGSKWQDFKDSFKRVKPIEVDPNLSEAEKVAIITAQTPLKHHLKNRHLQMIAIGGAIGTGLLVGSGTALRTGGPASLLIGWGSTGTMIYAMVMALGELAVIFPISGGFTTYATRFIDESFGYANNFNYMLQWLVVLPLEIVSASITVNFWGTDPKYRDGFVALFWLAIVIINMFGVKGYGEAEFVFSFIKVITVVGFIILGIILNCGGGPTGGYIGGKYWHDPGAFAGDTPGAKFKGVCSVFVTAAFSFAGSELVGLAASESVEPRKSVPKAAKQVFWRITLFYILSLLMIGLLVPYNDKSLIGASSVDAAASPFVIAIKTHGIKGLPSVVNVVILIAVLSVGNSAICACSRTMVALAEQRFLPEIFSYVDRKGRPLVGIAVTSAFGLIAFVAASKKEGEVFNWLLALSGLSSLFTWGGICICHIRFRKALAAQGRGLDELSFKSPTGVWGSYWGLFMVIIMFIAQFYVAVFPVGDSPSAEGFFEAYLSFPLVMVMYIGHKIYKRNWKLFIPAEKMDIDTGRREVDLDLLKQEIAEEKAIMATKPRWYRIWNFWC

inhibition [1]: Active | inhibition [2]: Active | Activity [3]: Active | Activity [4]: inactive | inhibition [5]: Active
SMILES: NC(=O)NCCC[C@H](N)C(=O)O
